Activity calls are given as the source filed them.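 Rule for the calls: active = caspase luminescence falls with dose and the half-maximal concentration AC50 from the fitted curve is at or below a set limit; inconclusive = flat fit at 30 to 70% signal loss, or invalid fit; inactive = AC50 above the limit, or signal rises instead.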
These compounds were tested on INS-1E cytokine-induced caspase-3/7, Caspase-Glo luminescence, 48 h (assay: suppression of cytokine-driven beta-cell apoptosis – INS-1E rat cells, luminescence, orthogonal assay for beta-cell apoptosis protection project, dose response (AID 463206)).
CCCCCCOc1ccc(CN2CCN(C)CC2)cc1 was tested, and the AC50 was > 26 µM (inactive). In the case of C/C(=N\NC(=O)c1ccccc1NC(=O)c1ccc(Cl)cc1)c1ccncc1, the AC50 is reported as > 26 µM (inactive). With O=C(N/N=C\c1cc(Br)ccc1O)c1ccc(S(=O)(=O)N2CCCCC2)cc1 the AC50 was > 26 µM (inactive). For CCCCCCC(=O)N1C/C=C\C(c2ccc(OC)cc2)N(Cc2ccc(F)cc2)C(=O)[C@H]1Cc1ccccc1 (stereo partly drawn), the AC50 was > 26 µM (inactive). With Cc1cccc2sc(NNC(=O)c3ccc(S(=O)(=O)N4CCCC(C)C4)cc3)nc12 (stereo not drawn) the AC50 was > 26 µM (inactive). With COc1ccc(-c2c[n+]3c(n2-c2ccccc2)CCCCC3)cc1 the AC50 was > 26 µM (inactive). CCCCC(=O)NC(c1ccc(N(C)C)cc1)c1ccc2cccnc2c1O (stereo not drawn) was tested, and the AC50 was > 26 µM (inactive). For O=C(N/N=C/c1ccccc1O)c1ccc2c(c1)OCO2, the AC50 was > 26 µM (inactive). For CCCC(=O)N(CCN(C(=O)CCC)c1ccccc1)c1ccccc1, the AC50 was > 26 µM (inactive). Cc1ccc(S(=O)(=O)Nc2ccc(NC(=O)Nc3cccc(C(F)(F)F)c3)cc2)cc1 was tested, and the AC50 was > 26 µM (inactive). Cc1cc(C)nc(SCC(=O)NC2=NN=C(c3ccc(Br)cc3)CS2)n1 was tested, and the AC50 was > 26 µM (inactive). In the case of CC(C)(C)c1cc(C(=O)N/N=C/c2ccccc2O)n(-c2ccccc2)n1, the AC50 is reported as > 26 µM (inactive). COCCCNC(=S)N/N=C/c1cccc(OC)c1O was tested, and the AC50 was > 26 µM (inactive). CC(CC(=O)N1CCN(c2cccc(Cl)c2)CC1)S(=O)(=O)c1ccc2c(c1)NC(=O)CO2 (stereo not drawn) was tested, and the AC50 was > 26 µM (inactive). For COCCNC(=O)CSC1=N/C(=C/c2ccc(Cl)c(Cl)c2)C(=O)N1c1ccccc1F, the AC50 was > 26 µM (inactive). In the case of O=[N+]([O-])c1ccc(Sc2cccc3cccnc23)c([N+](=O)[O-])c1, the AC50 is reported as > 26 µM (inactive). For Cc1ccc(-c2cc3cccc[n+]3cc2-c2ccc(C)cc2)cc1, the AC50 was > 26 µM (inactive). In the case of O=C(NNc1ccnc2cc(Cl)ccc12)C1CCCCC1, the AC50 is reported as > 26 µM (inactive). CCC(C)(C)c1ccc(OCCCC[n+]2ccccc2)c(C(C)(C)CC)c1 was tested, and the AC50 was > 26 µM (inactive). CCn1c(NN=O)nc2ccccc21 was tested, and the AC50 was > 26 µM (inactive). With COC(=O)c1cc(C)nc2c1C(=O)C(=O)C=C2N1CCOCC1 the AC50 was > 26 µM (inactive). For O=C(Nc1nc(-c2ccccn2)cs1)c1ccccc1-n1cnnn1, the AC50 was > 26 µM (inactive). In the case of CCc1ccc(OC)c(S(=O)(=O)Nc2ccc(Cc3ccncc3)cc2)c1, the AC50 is reported as > 26 µM (inactive). For CC(=O)NN1C(=O)c2ccc3c4c(ccc(c24)C1=O)C(=O)N(NC(C)=O)C3=O, the AC50 was > 26 µM (inactive). With CCCOc1cc(NCc2ccccc2)c2ncn(C(C)C)c2c1 the AC50 was > 26 µM (inactive). With CCCCCCCCCCCCCCCC[N+](C)(C)CCN(Cc1ccc(OC)cc1)c1ncccn1 the AC50 was > 26 µM (inactive). For CCN(CC)c1ccc(/C=N/NC(=O)c2ccoc2C)c(O)c1, the AC50 was > 26 µM (inactive). For Cc1cc(N/N=C/c2cccc(Cl)c2)nc(-n2nc(C)cc2C)n1, the AC50 was > 26 µM (inactive). COc1ccc(NC(=O)/C(Cl)=C(/Cl)S(=O)Cc2ccc(C)cc2)cn1 (stereo not drawn) was tested, and the AC50 was > 26 µM (inactive). For O=C(N/N=C/c1cnc(N2CCCCC2)s1)c1ccc(C(F)(F)F)cc1, the AC50 was > 26 µM (inactive). For CN(c1ccccc1)c1ccc(/C=C/[N+](=O)[O-])cc1, the AC50 was > 26 µM (inactive). In the case of O=C1/C(=N\S(=O)(=O)c2cccs2)C([n+]2cccc(Cc3ccccc3)c2)=C([O-])c2ccccc21, the AC50 is reported as > 26 µM (inactive). For Cc1cc(C)cc(NC(=O)/C(C#N)=C/c2cn(CC(=O)NCc3ccco3)c3ccccc23)c1, the AC50 was > 26 µM (inactive). In the case of O=C(N/N=C/c1sc2ccccc2c1O)c1cccc2ccccc12, the AC50 is reported as > 26 µM (inactive). In the case of Cc1cc(C)c(S(=O)(=O)/N=C2/C=C(Sc3ncn[nH]3)C(=O)c3ccccc32)cc1C, the AC50 is reported as > 26 µM (inactive). For COc1ccc(C(=O)C/C(=C\C(=O)c2ccc(C)cc2)c2ccccc2)cc1, the AC50 was > 26 µM (inactive). With CSc1nc(N)nc2c1ncn2CC(=O)N1CCN(Cc2c(C)cc(C)cc2C)CC1 the AC50 was > 26 µM (inactive). In the case of CCN(CC)c1ccc(/C=N/NC(=O)CCC(=O)NCc2ccccc2)c(O)c1, the AC50 is reported as > 26 µM (inactive). In the case of CC(=O)Nc1ccccc1OCC(=O)c1cc(C)n(Cc2cccs2)c1C, the AC50 is reported as > 26 µM (inactive). CCOC(=O)c1ccc(NC(=O)c2nc(S(=O)(=O)Cc3ccccc3)ncc2Cl)cc1 was tested, and the AC50 was > 26 µM (inactive). For CCSC1=NCCN1C(=O)C(C)(C)Oc1ccc(Cl)cc1, the AC50 was > 26 µM (inactive). With [O-][N+]1=c2ccc(Nc3ccccc3)cc2=NC12CCCCC2 the AC50 was > 26 µM (inactive). In the case of Cc1cc(-c2ccccc2)cc(C)[n+]1Cc1ccccc1, the AC50 is reported as > 26 µM (inactive). With Cc1cc(N/N=C/c2ccccc2[N+](=O)[O-])nc(-n2nc(C)cc2C)n1 the AC50 was > 26 µM (inactive). In the case of COC(=O)c1ccc(COc2ccccc2/C=C(\C#N)C(=O)Nc2c(C)cccc2C)cc1, the AC50 is reported as > 26 µM (inactive). In the case of CC(CNC(=O)c1ccc(OC2CCN(Cc3ccccn3)CC2)cc1)Oc1cccnc1 (stereo not drawn), the AC50 is reported as > 26 µM (inactive). In the case of CC1=NN(c2nc3ccccc3[nH]2)C(=O)C1Cc1ccccc1 (stereo not drawn), the AC50 is reported as > 26 µM (inactive). With O=C(Nc1cccc(NC(=O)c2cc([N+](=O)[O-])ccc2Cl)n1)c1cc([N+](=O)[O-])ccc1Cl the AC50 was 3.73 µM. With CCOc1ccc(/C=N/NC(=O)c2[nH]ncc2Br)c(O)c1 the AC50 was > 26 µM (inactive). In the case of O=C(N/N=C/c1ccc([N+](=O)[O-])s1)C(O)c1ccccc1 (stereo not drawn), the AC50 is reported as > 26 µM (inactive). For CCc1ccc2[nH]c(=O)c(C3C(C#N)=C(N)Oc4c3ccc3cccnc43)cc2c1 (stereo not drawn), the AC50 was > 26 µM (inactive). For Cn1nc(C(C)(C)C)cc1C(=O)NCc1cc(F)cc2c1OCOC2, the AC50 was > 26 µM (inactive). For COC(/C(=N/O)c1ccc(Cl)cc1)c1ccccc1 (stereo not drawn), the AC50 was > 26 µM (inactive). For NC(N)=N/N=C/c1ccc(OCc2ccccc2)cc1, the AC50 was > 26 µM (inactive). For Cc1cccn2c(Nc3ccccc3)c(-c3ccccn3)nc12, the AC50 was > 26 µM (inactive). For COc1ccc(OCc2n(CC(=O)OC3CC(C)CCC3C(C)C)c3ccccc3[n+]2C)cc1 (stereo not drawn), the AC50 was > 26 µM (inactive). For Cc1ccc(-n2c(-c3ccccc3)c[n+]3c2CCc2ccccc2-3)c(C)c1, the AC50 was > 26 µM (inactive). With CN(/N=C/c1cc(Br)cc(Br)c1O)c1cccc(C(F)(F)F)n1 the AC50 was > 12 µM (inactive). For CCn1c(C)nc2cc(C(=O)N/N=C/c3cccc(O)c3O)ccc21, the AC50 was > 26 µM (inactive). O=C(/C=C/c1ccccc1)NC(=S)NNC(=O)c1cnccn1 was tested, and the AC50 was > 26 µM (inactive). With O=C(NCc1cccnc1)C(=O)Nc1nc(C23CC4CC(CC(C4)C2)C3)cs1 the AC50 was > 26 µM (inactive). With Cc1c(C(=O)N(Cc2ccccc2)C(C)C)oc2ccc(S(=O)(=O)N3CCOCC3)cc12 the AC50 was > 26 µM (inactive). In the case of COc1cc(C(=O)NC(=S)NNC(=O)c2cnccn2)cc(OC)c1OC, the AC50 is reported as > 26 µM (inactive). CCCCCCSc1cccc(-c2nc3ccccn3c2NCc2ccccc2)c1 was tested, and the AC50 was > 26 µM (inactive). For CC1Sc2ccc(S(=O)(=O)N3CCC(C(=O)Nc4ccc(Cl)cc4)CC3)cc2NC1=O (stereo not drawn), the AC50 was > 26 µM (inactive). In the case of O=S(=O)(c1ccc(Cl)cc1)N1CCN(c2ncnc3sccc23)CC1, the AC50 is reported as > 26 µM (inactive). O=[N+]([O-])c1ccc(O)c(-c2cc(C(F)(F)F)nc(-c3ccccc3)n2)c1 was tested, and the AC50 was > 26 µM (inactive). CCCCCCC[N+](CC)(CC)CCCCc1ccc(Cl)cc1 was tested, and the AC50 was > 26 µM (inactive).
